Values of other authors, collected in patent US11612669B2, “Disinfection method and apparatus” (University of Washington, priority 2020, dated 2023).

Tested on: microbes, viruses, and bacteria in blood plasma
Conditions: one micromolar solution, white light at 45,000 lux for more than one hour

CN(C)c1ccc2nc3ccc(=[N+](C)C)cc-3sc2c1 [methylene blue]
inactivation of microbes, viruses, and bacteria: can inactivate microbes, viruses, and bacteria
